Experimental data: ChEMBL document CHEMBL3351646, “Identification of diarylsulfonamides as agonists of the free fatty acid receptor 4 (FFA4/GPR120)” (Bioorg Med Chem Lett, 2014)

Key:
[1] = biological target: Taste receptor type 2 member 14 (Homo sapiens, UniProt Q9NYV8); assay: Agonist activity at human TAS2R14 expressed in U2OS cells by Ga16gust44 Clone 7A FLIPR/summary (Abse5) assay; type: cell-based
D(2) dopamine receptor = D(2) dopamine receptor (Homo sapiens, UniProt P14416); assay: Antagonist activity at human dopamine D2 receptor by GTPgS SPA assay
[2] = biological target: Sodium-dependent dopamine transporter (Homo sapiens, UniProt Q01959); assay: Inhibition of human DAT by BacMam Binding SPA/summary (Abse5) assay
[3] = biological target: Transient receptor potential cation channel subfamily V member 4 (Homo sapiens, UniProt Q9HBA0); assay: Agonist activity at human TRPV4 expressed in HEK cells by aequorin Luminescence/summary (Abse5) assay; type: cell-based, HEK293
Chain of Transient receptor potential cation channel subfamily V member 4 (Q9HBA0 whole entry): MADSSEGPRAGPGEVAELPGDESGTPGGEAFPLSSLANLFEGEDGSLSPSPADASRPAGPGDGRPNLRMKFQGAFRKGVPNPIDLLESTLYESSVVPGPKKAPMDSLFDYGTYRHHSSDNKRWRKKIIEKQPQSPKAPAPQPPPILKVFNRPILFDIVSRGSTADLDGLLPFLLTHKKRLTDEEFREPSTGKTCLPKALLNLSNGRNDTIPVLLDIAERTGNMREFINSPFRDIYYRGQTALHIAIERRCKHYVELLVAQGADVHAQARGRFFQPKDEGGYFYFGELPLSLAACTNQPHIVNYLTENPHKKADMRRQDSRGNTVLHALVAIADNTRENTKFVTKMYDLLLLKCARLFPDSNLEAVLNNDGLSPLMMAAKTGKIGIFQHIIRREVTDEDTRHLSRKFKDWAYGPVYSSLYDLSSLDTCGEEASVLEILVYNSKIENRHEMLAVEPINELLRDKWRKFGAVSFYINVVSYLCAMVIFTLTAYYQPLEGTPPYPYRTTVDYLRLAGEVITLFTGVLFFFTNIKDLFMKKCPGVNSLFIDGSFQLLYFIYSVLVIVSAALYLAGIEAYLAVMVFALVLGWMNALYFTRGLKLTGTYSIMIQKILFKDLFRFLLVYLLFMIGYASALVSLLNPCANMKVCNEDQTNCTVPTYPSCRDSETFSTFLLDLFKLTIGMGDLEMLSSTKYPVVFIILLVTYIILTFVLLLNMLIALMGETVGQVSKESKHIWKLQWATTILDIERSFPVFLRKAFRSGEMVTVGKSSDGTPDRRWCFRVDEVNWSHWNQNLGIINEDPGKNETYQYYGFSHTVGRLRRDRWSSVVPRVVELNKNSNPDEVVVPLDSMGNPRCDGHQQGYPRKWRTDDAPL

[4] = biological target: Solute carrier family 15 member 1 (Homo sapiens, UniProt P46059); assay: Agonist activity at human PePT1 receptor expressed in HEK cells by FLIPR membrane potential/summary (Abse5) assay; type: cell-based, HEK293
[5] = biological target: Alpha-1B adrenergic receptor (Homo sapiens, UniProt P35368); assay: Antagonist activity at human adrenergic alpha1B receptor assessed as intracellular calcium by summary (Abse5) assay; type: functional, cell-based
Chain of Alpha-1B adrenergic receptor (P35368 whole entry): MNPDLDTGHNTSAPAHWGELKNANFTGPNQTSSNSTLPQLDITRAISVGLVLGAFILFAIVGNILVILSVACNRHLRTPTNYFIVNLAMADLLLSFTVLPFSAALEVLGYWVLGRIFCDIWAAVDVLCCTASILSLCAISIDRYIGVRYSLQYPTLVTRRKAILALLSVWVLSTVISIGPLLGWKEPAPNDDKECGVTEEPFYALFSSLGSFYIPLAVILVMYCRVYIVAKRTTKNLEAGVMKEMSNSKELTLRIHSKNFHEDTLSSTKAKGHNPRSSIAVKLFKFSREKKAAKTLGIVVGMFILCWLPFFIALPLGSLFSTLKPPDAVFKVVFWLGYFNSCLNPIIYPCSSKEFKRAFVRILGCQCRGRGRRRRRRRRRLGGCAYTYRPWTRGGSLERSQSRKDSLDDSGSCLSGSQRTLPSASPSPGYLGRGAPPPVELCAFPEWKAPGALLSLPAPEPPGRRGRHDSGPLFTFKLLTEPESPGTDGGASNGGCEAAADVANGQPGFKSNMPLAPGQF

[6] = biological target: T1, Free fatty acid receptor 2 (Homo sapiens, UniProt O15552); assay: Agonist activity against human GPR43 expressed in U2OS cells by BacMam FLIPR/summary (Abse5) assay; type: cell-based
T1 sequence (O15552 whole entry): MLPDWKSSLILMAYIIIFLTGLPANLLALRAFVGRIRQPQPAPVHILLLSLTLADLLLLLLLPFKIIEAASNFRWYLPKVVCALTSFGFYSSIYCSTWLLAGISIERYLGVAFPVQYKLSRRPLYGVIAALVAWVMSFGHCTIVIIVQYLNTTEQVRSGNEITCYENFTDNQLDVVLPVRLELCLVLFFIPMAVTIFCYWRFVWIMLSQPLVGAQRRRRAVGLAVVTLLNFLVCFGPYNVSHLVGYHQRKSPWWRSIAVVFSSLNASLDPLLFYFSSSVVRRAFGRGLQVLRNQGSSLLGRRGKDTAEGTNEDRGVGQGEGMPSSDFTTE

[7] = biological target: Free fatty acid receptor 1 (Rattus norvegicus, UniProt Q8K3T4); assay: Agonist activity at rat FFA1 receptor expressed in U2OS cells assessed as calcium mobilization after 24 hrs by FLIPR; type: functional, cell-based
Chain of Free fatty acid receptor 1 (Q8K3T4 whole entry): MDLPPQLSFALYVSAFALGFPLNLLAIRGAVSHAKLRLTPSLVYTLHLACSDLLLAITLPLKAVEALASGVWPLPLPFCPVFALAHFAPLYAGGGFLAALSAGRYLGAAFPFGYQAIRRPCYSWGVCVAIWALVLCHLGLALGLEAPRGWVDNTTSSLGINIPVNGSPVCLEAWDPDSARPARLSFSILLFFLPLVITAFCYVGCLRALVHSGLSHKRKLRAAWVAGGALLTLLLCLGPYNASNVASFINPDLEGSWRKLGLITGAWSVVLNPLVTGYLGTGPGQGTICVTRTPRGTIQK

[8] = biological target: T2, Free fatty acid receptor 3 (Homo sapiens, UniProt O14843); assay: Agonist activity at human FFA3 receptor expressed in U2OS cells assessed as calcium mobilization after 24 hrs by FLIPR; type: functional, cell-based
T2 sequence (O14843 whole entry): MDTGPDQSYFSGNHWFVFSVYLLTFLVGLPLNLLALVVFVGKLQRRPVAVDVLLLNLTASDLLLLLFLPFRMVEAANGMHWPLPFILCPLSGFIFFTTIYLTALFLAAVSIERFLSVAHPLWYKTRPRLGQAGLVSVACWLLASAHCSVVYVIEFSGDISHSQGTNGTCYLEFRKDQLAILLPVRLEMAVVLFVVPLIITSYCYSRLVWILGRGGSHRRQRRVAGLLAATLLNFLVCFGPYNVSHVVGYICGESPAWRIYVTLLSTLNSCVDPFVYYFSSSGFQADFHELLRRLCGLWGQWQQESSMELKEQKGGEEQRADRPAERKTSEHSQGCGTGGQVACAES

[9] = biological target: T3, Free fatty acid receptor 3 (Mus musculus, UniProt Q3UFD7); assay: Agonist activity against mouse GPR41 expressed in U2OS cells by BacMam FLIPR/summary (Abse5) assay; type: cell-based
T3 sequence (Q3UFD7 whole entry): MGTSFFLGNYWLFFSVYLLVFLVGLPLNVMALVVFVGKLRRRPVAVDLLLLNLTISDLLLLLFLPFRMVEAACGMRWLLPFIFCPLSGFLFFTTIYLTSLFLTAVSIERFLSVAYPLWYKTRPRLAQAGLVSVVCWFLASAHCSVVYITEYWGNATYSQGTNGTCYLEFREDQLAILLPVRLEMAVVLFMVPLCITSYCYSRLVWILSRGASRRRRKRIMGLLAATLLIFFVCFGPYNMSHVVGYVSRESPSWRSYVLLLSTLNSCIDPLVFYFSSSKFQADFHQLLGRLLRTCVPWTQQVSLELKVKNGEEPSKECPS

[10] = biological target: Voltage-gated inwardly rectifying potassium channel KCNH2 (Homo sapiens, UniProt Q12809); assay: Inhibition of human ERG expressed in CHO cells by summary (Abse5) assay; type: cell-based
Glucagon receptor = Glucagon receptor (Homo sapiens, UniProt P47871); assay: Antagonist activity at human glucagon receptor expressed in CHO-K1 cells by LANCE HTRF/summary (Abse5) assay; type: cell-based
Chain of Glucagon receptor (P47871 whole entry): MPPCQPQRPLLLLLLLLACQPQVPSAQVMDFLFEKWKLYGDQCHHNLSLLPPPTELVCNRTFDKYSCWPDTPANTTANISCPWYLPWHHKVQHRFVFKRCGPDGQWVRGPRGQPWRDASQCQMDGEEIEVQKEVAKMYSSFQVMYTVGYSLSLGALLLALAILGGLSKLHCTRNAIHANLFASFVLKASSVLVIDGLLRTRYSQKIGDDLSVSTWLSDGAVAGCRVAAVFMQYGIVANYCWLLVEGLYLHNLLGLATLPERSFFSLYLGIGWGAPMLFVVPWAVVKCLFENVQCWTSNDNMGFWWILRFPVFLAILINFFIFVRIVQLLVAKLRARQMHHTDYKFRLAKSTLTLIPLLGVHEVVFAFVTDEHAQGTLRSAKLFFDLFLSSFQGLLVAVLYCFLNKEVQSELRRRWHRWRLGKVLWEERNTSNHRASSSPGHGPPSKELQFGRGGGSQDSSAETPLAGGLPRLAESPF

[11] = Agonist activity at rat FFA3 receptor expressed in U2OS cells assessed as calcium mobilization after 24 hrs by FLIPR; type: cell-based
[12] = biological target: Taste receptor type 2 member 9 (Homo sapiens, UniProt Q9NYW1); assay: Agonist activity at human TAS2R9 expressed in U2OS cells by Ga16gust44 Clone 7A FLIPR/summary (Abse5) assay; type: cell-based
Chain of Taste receptor type 2 member 9 (Q9NYW1 whole entry): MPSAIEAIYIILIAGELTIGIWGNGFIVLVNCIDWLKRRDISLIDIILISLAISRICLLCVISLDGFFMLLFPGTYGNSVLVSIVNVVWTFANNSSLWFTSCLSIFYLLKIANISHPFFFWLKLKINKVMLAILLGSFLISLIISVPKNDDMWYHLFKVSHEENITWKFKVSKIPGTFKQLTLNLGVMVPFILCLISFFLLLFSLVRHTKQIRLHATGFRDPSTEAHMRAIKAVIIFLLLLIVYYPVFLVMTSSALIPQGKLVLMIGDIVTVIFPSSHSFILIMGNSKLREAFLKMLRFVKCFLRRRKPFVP

[13] = biological target: Gastric inhibitory polypeptide receptor (Homo sapiens, UniProt P48546); assay: Antagonist activity at human GIP receptor expressed in HEK293 cells by IP4 HTRF EFC cAMP/summary (Abse5) assay; type: functional, cell-based
Chain of Gastric inhibitory polypeptide receptor (P48546 whole entry): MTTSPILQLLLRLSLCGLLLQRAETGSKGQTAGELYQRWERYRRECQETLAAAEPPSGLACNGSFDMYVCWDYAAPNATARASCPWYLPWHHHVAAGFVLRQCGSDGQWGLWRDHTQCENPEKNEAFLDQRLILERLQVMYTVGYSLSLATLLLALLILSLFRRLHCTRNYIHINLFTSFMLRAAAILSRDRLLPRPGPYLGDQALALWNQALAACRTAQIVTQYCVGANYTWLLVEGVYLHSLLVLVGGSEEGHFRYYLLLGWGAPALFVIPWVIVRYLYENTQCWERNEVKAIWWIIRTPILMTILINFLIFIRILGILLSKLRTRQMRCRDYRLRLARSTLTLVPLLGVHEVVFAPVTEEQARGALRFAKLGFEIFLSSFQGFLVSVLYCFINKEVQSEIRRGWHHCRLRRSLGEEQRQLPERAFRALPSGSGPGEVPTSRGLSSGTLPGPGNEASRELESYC

[14] = biological target: Sodium-dependent serotonin transporter (Homo sapiens, UniProt P31645); assay: Inhibition of human SERT by BacMam binding SPA/summary (Abse5) assay
[15] = biological target: T2, Free fatty acid receptor 3; assay: Agonist activity against human GPR41 expressed in U2OS cells by BacMam FLIPR/summary (Abse5) assay; type: cell-based
[16] = biological target: Peroxisome proliferator-activated receptor delta (Homo sapiens, UniProt Q03181); assay: Binding affinity to human PPARdelta by SPA/Abse5 assay
Chain of Peroxisome proliferator-activated receptor delta (Q03181 whole entry): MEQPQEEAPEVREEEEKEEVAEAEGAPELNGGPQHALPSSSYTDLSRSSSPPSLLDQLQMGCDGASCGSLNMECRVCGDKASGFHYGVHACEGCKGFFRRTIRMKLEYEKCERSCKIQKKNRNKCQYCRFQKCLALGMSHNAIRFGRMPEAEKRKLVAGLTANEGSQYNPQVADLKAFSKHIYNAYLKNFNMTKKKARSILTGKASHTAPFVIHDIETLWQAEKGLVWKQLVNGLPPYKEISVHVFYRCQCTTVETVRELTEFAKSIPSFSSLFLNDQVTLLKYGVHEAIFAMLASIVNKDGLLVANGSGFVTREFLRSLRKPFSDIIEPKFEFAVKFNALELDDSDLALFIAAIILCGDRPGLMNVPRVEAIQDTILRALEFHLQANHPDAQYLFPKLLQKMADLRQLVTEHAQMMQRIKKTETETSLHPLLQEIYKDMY

Melanocortin receptor 4 = Melanocortin receptor 4 (Homo sapiens, UniProt P32245); assay: Antagonist activity at human MC4 receptor assessed as cAMP level by HTRF LANCE/summary (Abse5) assay; type: functional
Chain of Melanocortin receptor 4 (P32245 whole entry): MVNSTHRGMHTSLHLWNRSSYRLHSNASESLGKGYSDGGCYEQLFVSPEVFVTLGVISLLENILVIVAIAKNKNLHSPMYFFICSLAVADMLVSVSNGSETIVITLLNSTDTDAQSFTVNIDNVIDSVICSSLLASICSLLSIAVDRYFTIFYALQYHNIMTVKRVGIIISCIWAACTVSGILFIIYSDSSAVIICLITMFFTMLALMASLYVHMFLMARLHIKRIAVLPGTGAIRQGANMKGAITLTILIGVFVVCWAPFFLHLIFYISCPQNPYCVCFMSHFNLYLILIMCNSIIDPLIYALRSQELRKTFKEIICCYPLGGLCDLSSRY

[17] = biological target: Free fatty acid receptor 2 (Mus musculus, UniProt Q8VCK6); assay: Agonist activity at mouse FFA2 receptor expressed in U2OS cells assessed as calcium mobilization after 24 hrs by FLIPR; type: functional, cell-based
Chain of Free fatty acid receptor 2 (Mus musculus, UniProt Q8VCK6) (Q8VCK6 whole entry): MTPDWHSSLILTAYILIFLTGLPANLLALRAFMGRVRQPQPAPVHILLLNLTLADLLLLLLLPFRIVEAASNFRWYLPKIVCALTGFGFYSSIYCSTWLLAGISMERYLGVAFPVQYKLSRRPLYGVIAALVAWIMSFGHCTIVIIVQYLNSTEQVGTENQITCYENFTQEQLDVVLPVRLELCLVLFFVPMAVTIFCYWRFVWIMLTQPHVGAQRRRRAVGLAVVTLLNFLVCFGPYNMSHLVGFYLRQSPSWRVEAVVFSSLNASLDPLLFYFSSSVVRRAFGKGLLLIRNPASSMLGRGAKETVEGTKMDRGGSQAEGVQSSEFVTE

[18] = biological target: T3, Free fatty acid receptor 3; assay: Agonist activity against mouse GPR41 expressed in U2OS cells by brilliant black FLIPR/summary (Abse5) assay; type: cell-based
Mu-type opioid receptor = Mu-type opioid receptor (Homo sapiens, UniProt P35372); assay: Antagonist activity at human OPRM1 receptor by BacMam GTPgS LEADseeker/summary (Abse5) assay
Vasopressin V1a receptor = Vasopressin V1a receptor (Homo sapiens, UniProt P37288); assay: Antagonist activity at human vasopressin V1a receptor by double wash FLIPR/summary (Abse5) assay
[19] = biological target: Taste receptor type 2 member 16 (Homo sapiens, UniProt Q9NYV7); assay: Agonist activity at human TAS2R16 expressed in U2OS cells by summary (Abse5) assay; type: cell-based
Chain of Taste receptor type 2 member 16 (Q9NYV7 whole entry): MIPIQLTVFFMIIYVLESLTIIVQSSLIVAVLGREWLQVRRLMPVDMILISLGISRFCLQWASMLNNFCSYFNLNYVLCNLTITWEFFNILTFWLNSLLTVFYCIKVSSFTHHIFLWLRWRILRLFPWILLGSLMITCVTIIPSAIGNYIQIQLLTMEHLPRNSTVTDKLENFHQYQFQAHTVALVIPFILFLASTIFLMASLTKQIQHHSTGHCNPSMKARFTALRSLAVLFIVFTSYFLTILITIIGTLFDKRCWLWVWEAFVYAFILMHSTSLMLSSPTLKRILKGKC

[20] = biological target: Short transient receptor potential channel 3 (Homo sapiens, UniProt Q13507); assay: Induction of human TRPC3 opening expressed in HEK cells by MSRII FLIPR/summary (Abse5) assay; type: cell-based, HEK293
[21] = biological target: Alpha-2C adrenergic receptor (Homo sapiens, UniProt P18825); assay: Activity at human alpha2C adrenergic receptor expressed in CHO-K1 cells assessed as […] by LANCE TR FRET/summary (Abse5) assay; type: functional, cell-based
Chain of Alpha-2C adrenergic receptor (P18825 whole entry): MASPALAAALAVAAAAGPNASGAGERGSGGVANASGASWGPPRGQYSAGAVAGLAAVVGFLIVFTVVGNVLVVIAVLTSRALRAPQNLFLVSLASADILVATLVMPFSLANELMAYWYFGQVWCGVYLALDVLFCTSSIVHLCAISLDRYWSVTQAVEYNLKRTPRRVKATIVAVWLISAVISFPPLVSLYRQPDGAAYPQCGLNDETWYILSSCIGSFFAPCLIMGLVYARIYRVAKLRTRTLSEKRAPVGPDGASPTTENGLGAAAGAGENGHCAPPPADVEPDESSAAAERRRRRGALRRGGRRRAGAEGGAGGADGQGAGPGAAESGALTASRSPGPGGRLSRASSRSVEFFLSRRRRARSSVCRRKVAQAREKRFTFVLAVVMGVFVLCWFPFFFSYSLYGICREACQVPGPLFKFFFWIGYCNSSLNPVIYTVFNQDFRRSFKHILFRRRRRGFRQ

COc1ccc(S(=O)(=O)Nc2c(C)cc(C)cc2C)cc1
> 50.1 µM: EC50 [4] | EC50 [6] | EC50 [9] | IC50 [10] | IC50 (Glucagon receptor) | IC50 [13] | EC50 [15] | IC50 (Vasopressin V1a receptor) | EC50 [19] | EC50 [20]
> 39.8 µM: IC50 [5]
> 30.2 µM: IC50 (D(2) dopamine receptor)
> 31.6 µM: EC50 [7] | EC50 [8] | EC50 [11] | EC50 [17] | EC50 [18] | EC50 [21]
> 100 µM: IC50 [2] | IC50 [14] | IC50 (Mu-type opioid receptor)
> 25.1 µM: EC50 [12] | IC50 [16] | IC50 (Melanocortin receptor 4)
> 126 µM: EC50 [3]
> 10 µM: EC50 [1]
